From patent US4997829A, “Penem compounds, and use thereof” (Suntory Limited, priority 1985, dated 1991)
Read-outs that look alike come from different tables or passages of the source.

Assays:
[1] = literature; cited from earlier work
B. fragilis GM7000 = experiment: Minimum inhibitory concentration (MIC), agar plate dilution method; type: cell-based; settings: Bacteroides fragilis, GM7000; 10^6 CFU inoculated, 37° C., 18 hours
Experimental: (§1) With regard to the novel compounds obtained according to this invention and the compounds of Reference Examples, their minimum inhibitory concentrations (MIC) were determined by the agar plate dilution method in accordance with the MIC measuring standard method of The Chemotherapeutic Society of Japan, whereby 10^6 colony forming units were inoculated and the minimal concentration to inhibit the microbial growth after inclubation at 37° C. for 18 hours were determined, as shown as μg/ml in Table.

S. aureus FAD209P JC-1 = experiment: as above; type: cell-based; settings: Staphylococcus aureus, FAD209PJC1; 10^6 CFU inoculated, 37° C., 18 hours
Experimental: as §1

E. coli W3630/Rms213 = experiment: as above; type: cell-based; settings: Escherichia coli, W3630/RMS213, 18 h, read-out: minimum inhibitory concentration (MIC)
Experimental: as §1

M. luteus ATCC9341 = experiment: as above; type: cell-based; settings: Micrococcus luteus, ATCC9341; 10^6 CFU inoculated, 37° C., 18 hours
Experimental: as §1

K. pneumoniae PC1602 = experiment: as above; type: cell-based; settings: Klebsiella pneumoniae, PC1602; 10^6 CFU inoculated, 37° C., 18 hours
Experimental: as §1

B. fragilis V-280-1 = experiment: as above; type: cell-based; settings: Bacteroides fragilis, V2801; 10^6 CFU inoculated, 37° C., 18 hours
Experimental: as §1

Pr. vulgaris GN7919 = experiment: as above; type: cell-based; settings: Proteus vulgaris, GN7919; 10^6 CFU inoculated, 37° C., 18 hours
Experimental: as §1

F. varium ATCC8501 = experiment: as above; type: cell-based; settings: Fusobacterium varium, ATCC8501; 10^6 CFU inoculated, 37° C., 18 hours
Experimental: as §1

Ent. cloacae 963 = experiment: as above; type: cell-based; settings: Enterobacter cloacae, 963; 10^6 CFU inoculated, 37° C., 18 hours
Experimental: as §1

Ser. marcescens IMA 1136 = experiment: as above; type: cell-based; settings: Serratia marcescens, IMA1136; 10^6 CFU inoculated, 37° C., 18 hours
Experimental: as §1

E. coli NIHI JC-2 = experiment: as above; type: cell-based; settings: Escherichia coli, NIHIJC2; 10^6 CFU inoculated, 37° C., 18 hours
Experimental: as §1

Pr. morganii IFO3848 = experiment: as above; type: cell-based; settings: Morganella morganii, IFO3848; 10^6 CFU inoculated, 37° C., 18 hours
Experimental: as §1

Al. fecalis IFO13111 = experiment: as above; type: cell-based; settings: 10^6 CFU inoculated, 37° C., 18 hours
Experimental: as §1

E. coli W3630/Rms212 = experiment: as above; type: cell-based; settings: Escherichia coli, W3630/RMS212, 18 h, read-out: minimum inhibitory concentration (MIC)
Experimental: as §1

E. coli KC-14 [2] = experiment: Therapeutic effect against experimental infection in mice (ED50); type: in vivo, E. coli; ICR strain male mice; settings: Escherichia coli, 144 h, survival after 6 days, Probit method, read-out: ED50
Experimental: (§2) Out of the novel compound obtained according to this invention, SUN 4435 was selected to carry out a treatment experiment with infected animals. As an animal, there were employed ICR strain male mice (5-weeks aged, with an average body weight of 29.1 g), which were infected intraperitoneally with a test microorganism, S. aureus Smith or E. coli KC-14, and 24 hours later, treated by subcutaneous or oral application of SUN 4435 or SUN 5555. ED50 values were determined from the survival rates found after 6 days in accordance with the Probit method.

E. coli KC-14 [3] = experiment: Therapeutic effect against experimental infection of mice (survival); type: in vivo, E. coli; ICR strain male mice
Experimental: (§3) Out of the novel compounds obtained according to this invention, SUN 4435 was selected to carry out a treatment experiment with infected animals. As an animal, there were employed ICR strain male mice (5-weeks aged, with a body weight of 23 to 27 g), which were inoculated intraperitoneally with S. aureus Smith or E. coli KC-14 and 2 hours later, treated by subcutaneous or oral application of SUN 4435.

S. aureus Smith [4] = experiment: as above; type: in vivo, S. aureus; ICR strain male mice
Experimental: as §3

S. aureus Smith [5] = experiment: Therapeutic effect against experimental infection in mice (ED50); type: in vivo, S. aureus; ICR strain male mice; settings: Staphylococcus aureus, po, 144 h, survival after 6 days, Probit method, read-out: ED50
Experimental: as §2

Acute toxicity test = type: in vivo; settings: mouse, in vivo, iv, route not restated (follows intravenous paragraph), read-out: 50% lethal dose (LD50)
Experimental: Out of the novel compounds obtained according to this invention, SUN 4435 and SUN 5555 were selected to carry out an acute toxicity test. As an animal, there were employed ICR strain mice (4-weeks aged), which were treated by oral and intravenous application of the compounds.

C[C@@H](O)[C@@H]1C(=O)N2C(C(=O)O)=C(SCCN)S[C@H]12 [1-thiathienamycin]
activity [1]: strong activity

C[C@@H](O)[C@H]1C(=O)N2C(C(=O)O)=C([C@H]3CCCO3)S[C@H]12 [SUN 4435, Potassium (1'R, 2"R, 5R, 6S)-6-(1'-hydroxyethyl)-2-(2"-tetrahydrofuranyl)penem-3-carboxylate]
MIC (B. fragilis GM7000): < 0.025 µg/mL | MIC (S. aureus FAD209P JC-1): 0.05 µg/mL | MIC (E. coli W3630/Rms213): 0.78 µg/mL | MIC (M. luteus ATCC9341): 0.05 µg/mL | MIC (K. pneumoniae PC1602): 0.1 µg/mL | MIC (B. fragilis V-280-1): 0.2 µg/mL | MIC (Pr. vulgaris GN7919): 0.39 µg/mL | MIC (F. varium ATCC8501): 0.2 µg/mL | MIC (Ent. cloacae 963): 3.13 µg/mL | MIC (Ser. marcescens IMA 1136): 3.13 µg/mL | MIC (E. coli NIHI JC-2): 0.78 µg/mL | MIC (Pr. morganii IFO3848): 6.25 µg/mL | MIC (Al. fecalis IFO13111): 0.78 µg/mL | MIC (E. coli W3630/Rms212): 1.56 µg/mL | ED50 (E. coli KC-14 [2]; KC14, po, oral): 11 mg/kg | ED50 (E. coli KC-14 [2]; KC14, sc, subcutaneous): 1.5 mg/kg | survival (E. coli KC-14 [3]; oral, 12.5 mg/kg or more, 1.5×10^5 CFU/head): every heads were found to survive | survival (E. coli KC-14 [3]; subcutaneous, 1.5 mg/kg, 3.1×10^5 CFU): three mice per five survived | survival (E. coli KC-14 [3]; subcutaneous, 2.6 mg/kg or more, 3.1×10^5 CFU): every heads were found to survive | survival (S. aureus Smith [4]; oral, 3.9 mg/kg, 3.6×10^5 CFU/head): three heads out of five survived | survival (S. aureus Smith [4]; oral, 9.6 mg/kg or more, 3.6×10^5 CFU/head): every heads were found to survive | survival (S. aureus Smith [4]; subcutaneous, 1.6 mg/kg or more, 5.7×10^5 CFU): every heads were found to survive | ED50 (S. aureus Smith [5]): 5.9 mg/kg | LD50 (Acute toxicity test; female mice): 456 mg/kg | LD50 (Acute toxicity test; male mice): 480 mg/kg
